Assay [1] concerns acetylation of the histone H3 Lysine 14 marker in U2OS cells. Kind of assay: Histone H3 Lysine 14 Acetylation Biomarker Assay. Type of assay: cell-based. The settings on record: Homo sapiens, serum free medium, 24 hours incubation, read-out: IC50, inhibition of histone H3 Lysine 14 acetylation. Here is the method:
Compounds were tested for their ability to inhibit acetylation of the histone H3 Lysine 14 marker in the following assay:
The cell line U2OS was seeded at a density of 3,000 cells per well in 384-well optical quality tissue culture plates in RPMI medium supplemented with 10% foetal bovine serum and 10 mM Hepes. The cells were allowed to adhere for 24 hours under standard culture conditions (37 degree Celsius, 5% CO2). At the end of this period the cells were washed with serum free medium. […] After incubation for 24 hours, the cells were fixed with 4% formaldehyde in PBS for 15 minutes at room temperature, washed with phosphate buffer saline and blocked with blocking buffer containing 0.2% TritonX100 and 2% BSA. Anti-H3K14ac specific antibody (Cell Signalling Technologies) in blocking buffer was added and incubated overnight at 4 degree Celsius. After washing, a secondary antibody labelled with AlexaFluor 488 dye (ThermoFisher) and Hoechst 33342 (1 μg/mL, Life Technologies) were added for 2 hours incubation at room temperature. Plates were washed and read on a PerkinElmer Opera HCS high content imaging platform. Using a Columbus image analysis pipeline, individual nuclei were located by Hoechst 33342 stain and the acetylation level was calculated from the AlexaFluor 488-related intensity in the same area.

Another assay deals with MOZ-KAT6A (Homo sapiens, UniProt Q92794, A567V). Nature of the assay: Acetyltransferase biochemical assay (AlphaScreen), KAT6A. On the technique in general: Alpha assays give light when donor and acceptor beads are brought close together.
Chain of MOZ-KAT6A (Q92794 with tags, fused parts or gaps A567V): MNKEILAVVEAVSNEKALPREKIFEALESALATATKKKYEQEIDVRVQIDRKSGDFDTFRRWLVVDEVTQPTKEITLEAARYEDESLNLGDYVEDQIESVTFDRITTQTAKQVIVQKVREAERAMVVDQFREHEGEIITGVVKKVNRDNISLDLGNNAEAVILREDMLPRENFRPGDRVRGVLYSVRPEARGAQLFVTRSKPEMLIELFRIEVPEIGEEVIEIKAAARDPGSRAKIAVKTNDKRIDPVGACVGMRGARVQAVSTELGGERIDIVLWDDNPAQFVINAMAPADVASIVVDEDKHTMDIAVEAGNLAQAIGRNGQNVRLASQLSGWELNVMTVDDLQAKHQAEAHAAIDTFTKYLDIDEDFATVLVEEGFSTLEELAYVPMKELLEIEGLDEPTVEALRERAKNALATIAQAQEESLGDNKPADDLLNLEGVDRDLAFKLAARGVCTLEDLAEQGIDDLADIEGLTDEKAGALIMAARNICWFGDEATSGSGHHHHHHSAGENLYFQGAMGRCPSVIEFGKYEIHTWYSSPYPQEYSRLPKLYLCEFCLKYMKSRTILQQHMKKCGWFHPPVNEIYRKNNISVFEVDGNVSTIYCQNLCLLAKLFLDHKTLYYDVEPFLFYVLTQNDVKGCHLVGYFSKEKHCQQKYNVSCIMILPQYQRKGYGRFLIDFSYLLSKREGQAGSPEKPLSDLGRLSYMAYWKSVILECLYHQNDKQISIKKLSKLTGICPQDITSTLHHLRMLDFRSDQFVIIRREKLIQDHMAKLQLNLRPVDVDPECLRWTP
Assay [2] relates to histone H2A.Z Lysine 7 acetylation marker in U2OS cells. Kind of assay: H2A.Z Lysine 7 Acetylation Biomarker Assay. Type of assay: cell-based. Particulars: Homo sapiens, serum free medium, 24 hours incubation, read-out: IC50, inhibition of histone H2A.Z Lysine 7 acetylation. Here is the method:
Compounds were tested for their ability to inhibit the histone H2A.Z Lysine 7 acetylation marker in the following assay:
The cell line U2OS was seeded at a density of 3,000 cells per well in 384-well optical quality tissue culture plates in RPMI medium supplemented with 10% foetal bovine serum and 10 mM Hepes. The cells were allowed to adhere for 24 hours under standard culture conditions (37 degree Celsius, 5% CO2). At the end of this period the cells were washed with serum free medium. […] 2018, at 30 μM concentration. After incubation for 24 hours, the cells were fixed with 4% formaldehyde in PBS for 15 minutes at room temperature, washed with phosphate buffer saline and blocked with blocking buffer containing 0.2% TritonX100 and 2% BSA. Anti-H2A.ZK7ac specific antibody (Abcam) in blocking buffer was added and incubated overnight at 4 degree Celsius. After washing, a secondary antibody labelled with AlexaFluor 488 dye (ThermoFisher) and Hoechst 33342 (1 μg/mL, Life Technologies) were added for 2 hours incubation at room temperature. Plates were washed and read on a PerkinElmer Opera HCS high content imaging platform. Using a Columbus image analysis pipeline, individual nuclei were located by Hoechst 33342 stain and the acetylation level was calculated from the AlexaFluor 488-related intensity in the same area.

In a further assay the target is TIP60-KAT5 (Homo sapiens, UniProt Q92993). Nature of the assay: Acetyltransferase biochemical assay (AlphaScreen), KAT5.
Chain of TIP60-KAT5 (Q92993 with tags, fused parts or gaps isoform Q92993-2): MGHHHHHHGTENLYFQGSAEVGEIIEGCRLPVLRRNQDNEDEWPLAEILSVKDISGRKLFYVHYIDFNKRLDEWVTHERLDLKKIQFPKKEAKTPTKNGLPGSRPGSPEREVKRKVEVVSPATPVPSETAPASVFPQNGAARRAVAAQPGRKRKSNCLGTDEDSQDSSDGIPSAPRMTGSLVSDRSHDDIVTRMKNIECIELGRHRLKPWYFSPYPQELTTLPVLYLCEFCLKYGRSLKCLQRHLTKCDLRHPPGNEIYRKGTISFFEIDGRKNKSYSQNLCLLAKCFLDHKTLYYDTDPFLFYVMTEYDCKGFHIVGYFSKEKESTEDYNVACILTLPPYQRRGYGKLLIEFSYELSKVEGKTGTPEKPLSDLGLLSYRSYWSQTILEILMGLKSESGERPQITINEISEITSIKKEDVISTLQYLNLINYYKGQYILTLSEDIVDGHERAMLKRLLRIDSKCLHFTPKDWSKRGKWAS
A further assay deals with HBO-KAT7 (Homo sapiens, UniProt O95251). Nature of the assay: Acetyltransferase biochemical assay (AlphaScreen), KAT7.
Chain of HBO-KAT7 (O95251 with tags, fused parts or gaps): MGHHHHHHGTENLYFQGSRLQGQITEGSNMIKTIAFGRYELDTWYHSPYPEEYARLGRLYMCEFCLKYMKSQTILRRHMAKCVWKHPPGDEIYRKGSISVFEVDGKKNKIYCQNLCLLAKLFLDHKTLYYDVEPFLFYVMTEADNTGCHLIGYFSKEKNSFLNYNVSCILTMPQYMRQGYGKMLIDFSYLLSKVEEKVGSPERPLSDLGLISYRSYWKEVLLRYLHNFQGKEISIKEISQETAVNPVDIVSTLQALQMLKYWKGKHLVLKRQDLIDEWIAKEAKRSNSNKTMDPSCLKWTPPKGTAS
The next assay addresses T1, QKF-KAT6B (Homo sapiens, UniProt Q8WYB5).
T1 construct: purchased SignalChem K315-381BG
Kind of assay: Acetyltransferase biochemical assay (AlphaScreen), KAT6B. Particulars: 8 nM KAT6B, 1 μM AcCoA, 100 nM histone H3.1. The text has this: KAT6B was obtained from SignalChem, catalog ID: K315-381BG

The subject of assay [3] is acetylation of the histone H3K23 marker in U2OS cells. Nature of the assay: Histone H3 Lysine 23 Acetylation Biomarker Assay. The settings on record: Homo sapiens, 24 hours incubation, read-out: IC50, inhibition of histone H3K23 acetylation. It counts as cell-based. As for the experimental part:
Compounds were tested for their ability to inhibit acetylation of the histone H3K23 marker in the following assay:
The cell line U2OS was seeded at a density of 9,000 cells per well in 96 well optical quality tissue culture plates in RPMI medium and 10% foetal bovine serum, and allowed to adhere for 24 hours under standard culture conditions (37 degree Celsius, 5% CO2). At the end of this period the medium was aspirated. […] After incubation for 24 hours, the cells were fixed with 3.7% formaldehyde in PBS for 20 minutes at room temperature, washed (5×5 minutes) with phosphate buffer saline containing 0.1% Tween 20 and blocked with Odyssey blocking buffer (LI-COR, Lincoln, Nebr.) containing 0.1% TritonX100. Anti-H3K23ac specific antibody (Abcam ab177275) in Odyssey blocking buffer containing 0.1% Tween 20 was added and incubated for 16 hours at 4 degree Celsius. After washing (as above), a secondary antibody labelled with Alexa647 dye (LifeTechnologies) and Hoechst 33342 (1 μg/mL, SigmaAldrich) were added for 1 hour incubation. Plates were washed as previously and read on a PerkinElmer Phenix high content imaging platform. Using a Columbus image analysis pipeline, individual nuclei were located by Hoechst 33342 stain and the acetylation level was calculated from the Alexa647-related intensity in the same area.

Another assay deals with T2, MOF-KAT8 (Homo sapiens, UniProt Q9H7Z6).
T2 sequence (Q9H7Z6 with tags, fused parts or gaps): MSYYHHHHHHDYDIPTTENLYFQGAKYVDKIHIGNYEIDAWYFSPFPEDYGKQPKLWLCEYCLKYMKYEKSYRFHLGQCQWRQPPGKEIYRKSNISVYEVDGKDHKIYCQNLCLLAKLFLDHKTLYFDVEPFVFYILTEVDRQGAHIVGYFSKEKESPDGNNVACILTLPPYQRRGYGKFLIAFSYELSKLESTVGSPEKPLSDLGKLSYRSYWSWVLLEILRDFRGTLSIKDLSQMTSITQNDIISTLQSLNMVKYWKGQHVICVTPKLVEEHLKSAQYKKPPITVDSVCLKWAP
Nature of the assay: biochemical.

T1 sequence (Q8WYB5 whole entry): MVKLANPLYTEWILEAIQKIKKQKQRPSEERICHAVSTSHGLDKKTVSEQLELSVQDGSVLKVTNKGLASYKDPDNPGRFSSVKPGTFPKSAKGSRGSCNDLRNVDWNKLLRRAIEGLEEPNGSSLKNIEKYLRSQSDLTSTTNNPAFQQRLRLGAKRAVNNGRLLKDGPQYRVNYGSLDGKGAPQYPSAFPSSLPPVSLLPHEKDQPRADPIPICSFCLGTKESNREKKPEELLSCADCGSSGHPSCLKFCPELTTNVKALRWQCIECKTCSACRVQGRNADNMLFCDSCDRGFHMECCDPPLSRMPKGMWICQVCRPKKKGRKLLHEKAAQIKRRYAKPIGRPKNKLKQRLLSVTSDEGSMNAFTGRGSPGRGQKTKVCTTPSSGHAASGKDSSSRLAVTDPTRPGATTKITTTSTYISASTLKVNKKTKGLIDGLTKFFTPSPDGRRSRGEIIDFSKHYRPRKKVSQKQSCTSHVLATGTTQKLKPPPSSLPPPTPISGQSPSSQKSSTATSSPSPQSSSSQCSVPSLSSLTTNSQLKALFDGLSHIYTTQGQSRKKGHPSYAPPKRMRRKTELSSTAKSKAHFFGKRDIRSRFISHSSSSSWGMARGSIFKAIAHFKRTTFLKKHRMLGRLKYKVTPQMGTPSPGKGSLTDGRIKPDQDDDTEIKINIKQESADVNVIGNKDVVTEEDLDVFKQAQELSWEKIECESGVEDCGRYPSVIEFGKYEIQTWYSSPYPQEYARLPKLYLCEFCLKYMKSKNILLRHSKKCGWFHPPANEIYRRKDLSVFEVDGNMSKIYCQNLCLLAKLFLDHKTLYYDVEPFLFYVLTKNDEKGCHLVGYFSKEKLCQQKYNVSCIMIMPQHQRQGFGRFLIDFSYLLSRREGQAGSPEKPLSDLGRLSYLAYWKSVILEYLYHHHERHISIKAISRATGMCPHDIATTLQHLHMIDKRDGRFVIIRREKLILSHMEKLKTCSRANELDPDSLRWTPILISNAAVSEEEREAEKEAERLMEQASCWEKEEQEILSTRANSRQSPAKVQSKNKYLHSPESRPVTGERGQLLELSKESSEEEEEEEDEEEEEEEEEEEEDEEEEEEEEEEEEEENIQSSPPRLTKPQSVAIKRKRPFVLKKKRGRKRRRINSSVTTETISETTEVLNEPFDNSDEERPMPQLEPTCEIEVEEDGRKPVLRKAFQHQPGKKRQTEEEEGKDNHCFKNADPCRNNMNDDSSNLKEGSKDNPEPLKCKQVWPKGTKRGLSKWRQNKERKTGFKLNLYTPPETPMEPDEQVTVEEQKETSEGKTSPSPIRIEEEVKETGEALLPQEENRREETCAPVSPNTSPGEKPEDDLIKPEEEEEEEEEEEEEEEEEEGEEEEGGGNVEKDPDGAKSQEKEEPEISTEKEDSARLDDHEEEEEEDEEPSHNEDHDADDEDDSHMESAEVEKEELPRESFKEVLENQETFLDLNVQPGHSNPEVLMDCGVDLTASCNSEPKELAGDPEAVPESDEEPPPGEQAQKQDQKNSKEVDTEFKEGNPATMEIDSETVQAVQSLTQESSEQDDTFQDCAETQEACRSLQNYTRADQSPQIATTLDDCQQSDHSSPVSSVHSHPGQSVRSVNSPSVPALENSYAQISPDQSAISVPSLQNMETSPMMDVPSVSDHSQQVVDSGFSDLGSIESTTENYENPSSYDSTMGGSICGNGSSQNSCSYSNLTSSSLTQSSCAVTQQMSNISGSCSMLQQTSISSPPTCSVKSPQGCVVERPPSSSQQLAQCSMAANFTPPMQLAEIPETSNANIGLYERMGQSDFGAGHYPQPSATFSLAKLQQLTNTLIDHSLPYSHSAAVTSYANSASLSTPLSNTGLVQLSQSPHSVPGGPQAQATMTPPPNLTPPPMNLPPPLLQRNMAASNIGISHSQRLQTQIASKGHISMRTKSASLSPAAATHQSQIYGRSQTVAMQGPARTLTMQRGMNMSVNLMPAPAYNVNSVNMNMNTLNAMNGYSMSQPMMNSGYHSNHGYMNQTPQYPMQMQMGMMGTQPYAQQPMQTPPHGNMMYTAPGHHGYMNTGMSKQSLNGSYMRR

On to `COc1cccc(OC)c1S(=O)(=O)Nc1noc2c(-c3ccccc3)cc(C)cc12` [Example 252, 2,6-Dimethoxy-N-(5-methyl-7-phenylbenzo[d]isoxazol-3-yl)benzenesulfonamide], for which the IC50 (in general, the point on the concentration scale where inhibition reaches its midpoint) was 24.7 µM in assay [1]; 4.16 µM on MOZ-KAT6A; greater than 40 µM in assay [2]; 102 µM against TIP60-KAT5; 1.3 µM on HBO-KAT7.

With `CCc1ccc(OC)c(S(=O)(=O)Nc2noc3ccc(C4CC4)c(Cl)c23)c1` [Example 207], the IC50 against QKF-KAT6B is 1.45 µM; against MOZ-KAT6A, 0.104 µM; against TIP60-KAT5 it was 4.61 µM; against HBO-KAT7 it was 0.257 µM.

`COc1cccc(OC)c1S(=O)(=O)Nc1noc2cccc(OC)c12` [Example 86, 2,6-dimethoxy-N-(4-methoxybenzo[d]isoxazol-3-yl)benzene sulfonamide]: the IC50 against MOZ-KAT6A worked out at 5.89 µM; against TIP60-KAT5, 97.6 µM; at HBO-KAT7 it was 1.98 µM; in assay [3], 1.58 µM.

`COc1cccc(OC)c1S(=O)(=O)Nc1noc2cc(OC(F)F)cc(OC)c12` [Example 242]: the IC50 on MOZ-KAT6A was found to be 3.23 µM; on TIP60-KAT5, 27.3 µM; at HBO-KAT7, 1.78 µM; in assay [3], 0.672 µM.

In the case of `CCc1ccc(OC)c(S(=O)(=O)Nc2noc3c(-c4cnn(C)c4)cccc23)c1` [Example 191, 5-Ethyl-2-methoxy-N-(7-(1-methyl-1H-pyrazol-4-yl)benzo[d]isoxazol-3-yl)benzenesulfonamide], the IC50 is 17.8 µM in assay [1]; 12.6 µM against MOZ-KAT6A; greater than 40 µM in assay [2]; 68.7 µM against TIP60-KAT5; 1.58 µM against HBO-KAT7; greater than 10 µM in assay [3].

In the case of `COc1ccccc1S(=O)(=O)Nc1noc2cccc(Cl)c12` [Example 155], the IC50 was 26.1 µM in assay [1]; 2.12 µM against MOZ-KAT6A; greater than 40 µM in assay [2]; 0.672 µM against TIP60-KAT5; 0.248 µM at HBO-KAT7; greater than 10 µM in assay [3].

On to `COc1cccc(OC)c1S(=O)(=O)Nc1noc2c(-c3cnn(C)c3)ccc(OC)c12` [Example 143, 2,6-Dimethoxy-N-(4-methoxy-7-(1-methyl-1H-pyrazol-4-yl)benzo[d]isoxazol-3-yl)benzenesulfonamide], for which the IC50 against QKF-KAT6B was 50.7 µM; on MOZ-KAT6A, 32.4 µM; on TIP60-KAT5, greater than 125 µM; against HBO-KAT7, 7.88 µM.

On to `CCc1ccc(OC)c(S(=O)(=O)Nc2noc3cccc(OC)c23)c1` [Example 116, 5-Ethyl-2-methoxy-N-(4-methoxybenzo[d]isoxazol-3-yl)benzenesulfonamide], for which the IC50 on QKF-KAT6B worked out at 1.62 µM; at MOZ-KAT6A, 0.56 µM; against TIP60-KAT5, 10.5 µM; on HBO-KAT7 it was 1.44 µM; in assay [3] it was 3.46 µM.

As to `COCc1cc2onc(NS(=O)(=O)c3c(OC)cccc3OC)c2c(OC)c1Cl` [Example 145], the IC50 is 3.38 µM in assay [1]; 0.127 µM at MOZ-KAT6A; greater than 40 µM in assay [2]; 21 µM at TIP60-KAT5; 0.259 µM at HBO-KAT7; 0.098 µM in assay [3].

On to `COCc1cc(OC)c2c(NS(=O)(=O)c3c(OC)ccc(Cl)c3OC)noc2c1` [Example 175, 3-Chloro-2,6-dimethoxy-N-(4-methoxy-6-(methoxymethyl)benzo[d]isoxazol-3-yl)benzenesulfonamide], for which the IC50 came out at 0.821 µM against QKF-KAT6B, 0.441 µM at MOZ-KAT6A, 43.2 µM at TIP60-KAT5 and 5.95 µM on HBO-KAT7.

As for `CCc1ccc(OC)c(S(=O)(=O)Nc2noc3ccc(C4CC4)cc23)c1` [Example 236], the IC50 was greater than 40 µM in assay [1]; 0.318 µM against MOZ-KAT6A; greater than 40 µM in assay [2]; 10.1 µM against TIP60-KAT5; 1.07 µM against HBO-KAT7; 3.68 µM against MOF-KAT8.

`COc1ccc(-c2ccccc2)c(OC)c1S(=O)(=O)Nc1noc2cccc(OC)c12` [Example 96, 2,4-Dimethoxy-N-(4-methoxybenzo[d]isoxazol-3-yl)-[1,1-biphenyl]-3-sulfonamide]: the IC50 is 3.39 µM on QKF-KAT6B; 1.2 µM against MOZ-KAT6A; 28.6 µM at TIP60-KAT5; 4.27 µM against HBO-KAT7; greater than 10 µM in assay [3]; 53.8 µM on MOF-KAT8.

Consider `COc1cncc(-c2cc(OC)c3c(NS(=O)(=O)c4c(OC)cccc4OC)noc3c2)c1` [Example 250, 2,6-Dimethoxy-N-(4-methoxy-6-(5-methoxypyridin-3-yl)benzo[d]isoxazol-3-yl)benzenesulfonamide], for which the IC50 came out at 3.48 µM in assay [1]; 0.423 µM against MOZ-KAT6A; 13.2 µM in assay [2]; 12.2 µM at TIP60-KAT5; 0.05 µM against HBO-KAT7; 3.71 µM in assay [3].

Regarding `COc1ccc(S(=O)(=O)Nc2noc3cc(C(N)=O)c(C)cc23)c2ncccc12` [Example 168, 3-((5-methoxyquinoline)-8-sulfonamido)-5-methylbenzo[d]isoxazole-6-carboxamide], the IC50 at MOZ-KAT6A is 10 µM; in assay [2], greater than 40 µM; against TIP60-KAT5, 3.42 µM; on HBO-KAT7, 36.4 µM; on MOF-KAT8, 6.46 µM.

Take `COc1cccc(OC)c1S(=O)(=O)Nc1noc2cc(Br)cc(OC)c12` [Example 89]: the IC50 was 3.96 µM in assay [1]; 0.285 µM on MOZ-KAT6A; 19.8 µM in assay [2]; 5.79 µM against TIP60-KAT5; 0.168 µM on HBO-KAT7.

In the case of `COc1cccc(OC)c1S(=O)(=O)Nc1noc2cc(-c3ncco3)c(C)cc12` [Example 102, 2,6-Dimethoxy-N-(5-methyl-6-(oxazol-2-yl)benzo[d]isoxazol-3-yl)benzenesulfonamide], the IC50 was 3.69 µM in assay [1]; 0.282 µM against QKF-KAT6B; 0.143 µM at MOZ-KAT6A; greater than 40 µM in assay [2]; 9.33 µM against TIP60-KAT5; 0.568 µM on HBO-KAT7. Also, the IC50 on MOF-KAT8 stood at 11.5 µM.

The values are drawn from patent publication US12365655B2, “Compounds” (CTXT PTY LTD, priority 2018, dated 2025).
